Test results: patent US8362013B2, “Salt of ABT-263 and solid-state forms thereof” (AbbVie Inc., priority 2009, dated 2013)

How the values were obtained:
[1] = stability in an oxidative environment; type: physicochemical
[2] = system: pro-apoptotic effects of other chemotherapeutic agents; conditions: cited from earlier work
[3] = system: small-cell lung cancer (SCLC); conditions: cited from earlier work
lymphoid malignancies = conditions: cited from earlier work

## CC1(C)CCC(c2ccc(Cl)cc2)=C(CN2CCN(c3ccc(C(=O)NS(=O)(=O)c4ccc(N[C@H](CCN5CCOCC5)CSc5ccccc5)c(S(=O)(=O)C(F)(F)F)c4)cc3)CC2)C1 [ABT-263]
[1]
  degradation in an oxidative environment: susceptible to degradation

## CN(C)CC[C@H](CSc1ccccc1)Nc1ccc(S(=O)(=O)NC(=O)c2ccc(N3CCN(Cc4ccccc4-c4ccc(Cl)cc4)CC3)cc2)cc1[N+](=O)[O-] [ABT-737, N-(4-(4-((4′-chloro-(1,1′-biphenyl)-2-yl)methyl)piperazin-1-yl)benzoyl)-4-(((1R)-3-(dimethylamino)-1-((phenylsulfanyl)methyl)propyl)amino)-3-nitrobenzene-sulfonamide]
[2]
  potentiation of pro-apoptotic effects of other chemotherapeutic agents: potentiates
[3]
  single-agent activity: single-agent activity
Lymphoid malignancies
  single-agent activity: single-agent activity
